# Values quoted from earlier work as cited in patent publication US20080226719A1, “Combination of Rosiglitazone and Donepezil for Improvement of Cognitive Function” (priority 2005, published 2008).
# Like-named read-outs stand apart in the source and are kept apart here.
# Columns and labels:
# [1] = system: individuals with mild cognitive impairment; settings: cited from earlier work; for rate at which patients developed AD: mild cognitive impairment
# [2] = system: patients with AD; settings: cited from earlier work
smiles,measurement,setting,value
COc1cc2c(cc1OC)C(=O)C(CC1CCN(Cc3ccccc3)CC1)C2 (centres unmarked) [donepezil],risk of progressing to AD compared to placebo,"[1]; carriers of one or two copies of an APOE4 allele, after three years",reduced risk of progressing to AD
same,rate at which patients developed AD,"[1]; at three years, versus placebo",no separation between groups
same,rate at which patients developed AD,[1]; first twelve months of administration,reduce the rate at which patients developed AD
Nc1c2c(nc3ccccc13)CCCC2 [tacrine],patients unchanged or worse,"[2]; APOE4 carriers with AD, after 30 weeks",60%
same,patients showing an improvement in cognitive function,[2]; non-APOE4 carriers with AD,83%
